Assay results published in ChEMBL document CHEMBL5518223, “Structure-Guided Elaboration of a Fragment-Like Hit into an Orally Efficacious Leukotriene A4 Hydrolase Inhibitor” (J Med Chem, 2024).
Converted amounts (≈) assume the structure as drawn.

Key:
in vivo = conditions: C57/BL6, mouse, blood, po, 10 mg/kg
Description: Drug concentration in C57/BL6 mouse blood at 10 mg/kg, po bid measured after 14 hrs

Mus musculus = species: Mus musculus; assay: animal or person; conditions: C57/BL6, po, 14 h, read-out: INH
Description: Inhibition of calcium ionophore A23187-stimulated LTB4 release in C57/BL6 mouse model at 10 mg/kg, po bid measured after 14 hrs

in vitro = conditions: dog, MDCK
Description: Apparent permeability coefficient of the compound across apical to basolateral side in dog MDCKII-LE cells

physchem [1] = conditions: buffer, pH 6.8
Description: Solubility of the compound at pH 6.8 using amorphous form of sample

[2] = target: T1, Leukotriene A-4 hydrolase (Homo sapiens, UniProt P09960); assay: Inhibition of LTA4H (unknown origin) using Arg-AMC as substrate preincubated with compound for 15 mins followed by substrate addition and measured after every 10 mins for 30 mins by fluorescence based analysis
T1 sequence (P09960 whole entry): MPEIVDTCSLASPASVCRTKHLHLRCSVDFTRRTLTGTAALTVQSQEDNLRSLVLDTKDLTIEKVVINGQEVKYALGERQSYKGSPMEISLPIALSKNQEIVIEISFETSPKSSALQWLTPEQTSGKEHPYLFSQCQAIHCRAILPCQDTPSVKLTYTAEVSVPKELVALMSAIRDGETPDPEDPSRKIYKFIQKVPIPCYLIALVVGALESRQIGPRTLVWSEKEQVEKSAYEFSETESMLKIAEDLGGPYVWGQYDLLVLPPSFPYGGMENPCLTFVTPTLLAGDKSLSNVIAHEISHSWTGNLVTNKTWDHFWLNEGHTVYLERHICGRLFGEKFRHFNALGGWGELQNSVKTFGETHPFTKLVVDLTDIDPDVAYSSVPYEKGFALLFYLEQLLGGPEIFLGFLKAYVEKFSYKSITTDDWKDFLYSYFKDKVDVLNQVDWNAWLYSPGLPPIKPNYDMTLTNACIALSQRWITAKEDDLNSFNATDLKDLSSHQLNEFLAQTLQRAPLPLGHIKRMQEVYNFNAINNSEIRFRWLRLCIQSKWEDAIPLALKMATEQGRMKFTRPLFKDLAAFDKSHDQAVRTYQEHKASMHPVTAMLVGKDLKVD

physchem [3] = conditions: octanol/water, pH 7.4
[4] = target: T2, Voltage-gated inwardly rectifying potassium channel KCNH2 (Homo sapiens, UniProt Q12809); assay: Inhibition of hERG by microfluidic patch clamp assay; format: toxicity
T2 sequence (Q12809 whole entry): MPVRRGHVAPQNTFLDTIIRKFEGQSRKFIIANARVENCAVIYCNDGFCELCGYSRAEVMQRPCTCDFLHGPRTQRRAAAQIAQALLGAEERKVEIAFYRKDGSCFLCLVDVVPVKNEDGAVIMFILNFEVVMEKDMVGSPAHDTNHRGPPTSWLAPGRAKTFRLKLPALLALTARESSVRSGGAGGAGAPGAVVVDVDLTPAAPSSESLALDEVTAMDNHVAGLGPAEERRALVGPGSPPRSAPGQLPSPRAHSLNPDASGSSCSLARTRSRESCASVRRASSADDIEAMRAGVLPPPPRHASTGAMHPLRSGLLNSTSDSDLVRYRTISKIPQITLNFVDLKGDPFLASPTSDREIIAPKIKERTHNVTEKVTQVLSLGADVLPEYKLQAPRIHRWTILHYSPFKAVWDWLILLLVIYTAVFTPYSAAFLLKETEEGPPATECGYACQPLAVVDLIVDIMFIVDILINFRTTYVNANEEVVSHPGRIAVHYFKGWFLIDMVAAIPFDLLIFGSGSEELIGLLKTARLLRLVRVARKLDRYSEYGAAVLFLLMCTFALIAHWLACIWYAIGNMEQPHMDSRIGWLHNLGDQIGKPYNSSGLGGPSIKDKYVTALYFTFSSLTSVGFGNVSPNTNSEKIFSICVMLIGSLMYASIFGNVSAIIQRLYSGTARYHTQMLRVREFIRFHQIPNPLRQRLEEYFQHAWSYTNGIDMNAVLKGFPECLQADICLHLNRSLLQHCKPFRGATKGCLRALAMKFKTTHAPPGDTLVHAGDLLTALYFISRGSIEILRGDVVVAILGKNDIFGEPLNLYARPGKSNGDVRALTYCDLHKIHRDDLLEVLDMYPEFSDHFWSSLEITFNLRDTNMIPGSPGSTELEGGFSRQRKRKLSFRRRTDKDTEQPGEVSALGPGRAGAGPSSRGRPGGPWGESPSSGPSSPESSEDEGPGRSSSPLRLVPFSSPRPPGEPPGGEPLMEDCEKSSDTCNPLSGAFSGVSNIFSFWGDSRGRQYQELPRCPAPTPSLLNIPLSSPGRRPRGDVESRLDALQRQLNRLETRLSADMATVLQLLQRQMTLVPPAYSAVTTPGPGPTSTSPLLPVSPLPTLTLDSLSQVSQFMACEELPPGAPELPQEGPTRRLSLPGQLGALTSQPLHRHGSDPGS

[5] = target: T2, Voltage-gated inwardly rectifying potassium channel KCNH2; assay: Inhibition of hERG by manual patch clamp assay; format: toxicity

SMILES	concentration at 14 h (in vivo)	IC50 [4]	IC50 [5]	also measured
N[C@@H](CC(=O)O)Cn1nnc(-c2ccc(Oc3ncc(Cl)cc3F)cc2)n1	184 nM	–	–	–
c1ccc(Oc2ccc(-c3c[nH]cn3)cc2)cc1	218 nM	–	–	inhibition in vivo at 10 mg/kg (Mus musculus): 93%; Papp A→B (in vitro): 56 ×10⁻⁶ cm/s; solubility (physchem [1]): 121 µM (≈ 28.6 µg/mL); IC50 [2]: 0.088 µM; logD (physchem [3]): 3.7
c1cc(-c2ccc(Oc3ccc(CN4CCCC4)nc3)nc2)[nH]n1	–	> 30 µM	19 µM	–
c1cc(-c2ccc(Oc3ccc(CN4CCCCC4)nc3)nc2)[nH]n1	–	> 30 µM	27 µM	–
CN(C)Cc1ccc(Oc2ccc(-c3ccn[nH]3)cn2)cn1	–	> 30 µM	–	–
